Patent publication US20240208912A1 (Mirati Therapeutics, Inc., priority 2021, published 2024)
Counter-ions that a name gives are not always drawn. Like-named read-outs stand apart in the source and are kept apart here.

What was measured:
PRMT5/MEP50 complex = target: T1, PRMT5/MEP50 complex (Homo sapiens, UniProt O14744); experiment: PRMT5:MEP50 HotSpot Assay (full-length histone H2A substrate, plus and minus MTA); assay type: biochemical; details: IC50 + 2 μM MTA, in the presence of 2 μM MTA
T1 construct: purchased Reaction Biology Corporation
T1 sequence (O14744 2-637 limits assumed): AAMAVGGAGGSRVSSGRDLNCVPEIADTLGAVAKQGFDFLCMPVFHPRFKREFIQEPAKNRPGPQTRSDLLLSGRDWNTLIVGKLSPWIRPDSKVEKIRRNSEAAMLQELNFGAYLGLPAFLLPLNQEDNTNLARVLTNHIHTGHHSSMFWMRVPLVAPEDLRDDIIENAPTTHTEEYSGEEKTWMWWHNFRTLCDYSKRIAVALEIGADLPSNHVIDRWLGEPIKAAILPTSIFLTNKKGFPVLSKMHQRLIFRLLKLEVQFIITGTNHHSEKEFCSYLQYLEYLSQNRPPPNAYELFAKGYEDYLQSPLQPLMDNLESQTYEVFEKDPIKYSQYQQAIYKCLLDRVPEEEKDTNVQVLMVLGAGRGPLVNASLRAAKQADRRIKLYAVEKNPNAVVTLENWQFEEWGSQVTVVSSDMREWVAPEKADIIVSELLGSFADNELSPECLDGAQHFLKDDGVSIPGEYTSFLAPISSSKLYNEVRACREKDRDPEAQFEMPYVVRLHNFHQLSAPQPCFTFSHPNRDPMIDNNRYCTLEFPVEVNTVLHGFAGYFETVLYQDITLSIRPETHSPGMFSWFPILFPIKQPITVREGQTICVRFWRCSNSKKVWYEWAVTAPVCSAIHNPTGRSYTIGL
T1 sequence (Q9BQA1 2-342 partner limits assumed): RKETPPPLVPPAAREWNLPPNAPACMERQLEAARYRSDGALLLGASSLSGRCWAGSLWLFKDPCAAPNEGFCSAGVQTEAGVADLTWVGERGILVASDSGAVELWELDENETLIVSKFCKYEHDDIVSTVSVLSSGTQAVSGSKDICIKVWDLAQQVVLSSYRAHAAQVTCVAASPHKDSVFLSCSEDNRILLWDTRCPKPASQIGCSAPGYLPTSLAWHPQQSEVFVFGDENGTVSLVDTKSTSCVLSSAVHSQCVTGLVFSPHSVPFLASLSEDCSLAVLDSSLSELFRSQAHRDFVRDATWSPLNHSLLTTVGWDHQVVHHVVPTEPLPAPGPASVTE
Summary of the method: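 Radiometric HotSpot format using recombinant full-length histone H2A as substrate, run with and without MTA. Reactions were stopped and spotted onto filter paper. Tritiated H2A was quantified by scintillation counting.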

[1] = system: HCT116 homozygous MTAP knockout cells; experiment: Proliferation assay (CellTiter-Glo, 10 days) in HCT116 homozygous MTAP knockout cells; assay type: cell-based; details: CellTiter-Glo after 10 days of treatment, read-out: Proliferation IC50 (nM) HCT116 MTAP_KO
Summary of the method: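 MTAP-null HCT116 clone made by CRISPR/Cas9 knockout of both alleles, tested beside parental cells. Cells dosed the day after seeding, split 1:10 on day 6 into fresh medium with the same compound level, and read on day 11 by CellTiter-Glo. IC50 taken after 10 days of exposure.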

Row | Compound | IC50 (PRMT5/MEP50 complex) [nM] | IC50 [1] [nM] | IC50 ([1]; Homo sapiens, HCT-116, 240 h) [nM]
1 | Cc1cc(OC2CC2)c(C#N)c(-c2c(-c3ccc4c(=O)[nH]nc(CN)c4c3)cnn2C)c1F (single isomer, unassigned) [Example 16-19, (P)-2-[4-[4-(aminomethyl)-1-oxo-2H-phthalazin-6-yl]-2-methyl-pyrazol-3-yl]-6-(cyclopropoxy)-3-fluoro-4-methyl-benzonitrile] | 173 | 1070 | 
2 | Cn1ncc(-c2ccc3c(=O)[nH]nc(CN)c3c2)c1-c1sc2ccncc2c1C#N [Example 4-274, 2-[4-[4-(aminomethyl)-1-oxo-2H-phthalazin-6-yl]-2-methyl-pyrazol-3-yl]thieno[3,2-c]pyridine-3-carbonitrile] | 1070 |  | 3380
3 | CCOc1cc(-c2cnn(C)c2-c2c(F)c(C)c3ccccc3c2C#N)cc2c(CN)n[nH]c(=O)c12 (single isomer, unassigned) [Example 16-82, (M)-2-[4-[4-(aminomethyl)-8-ethoxy-1-oxo-2H-phthalazin-6-yl]-2-methyl-pyrazol-3-yl]-3-fluoro-4-methyl-naphthalene-1-carbonitrile] | 1180 | 14 | 
4 | Cn1ncc(-c2ccc3c(=O)[nH]nc(CN)c3c2)c1-c1sc2c(C3CCCO3)cccc2c1C#N (stereo not shown) [Example 12-21, 2-[4-[4-(aminomethyl)-1-oxo-2H-phthalazin-6-yl]-2-methyl-pyrazol-3-yl]-7-THF-2-yl-benzothiophene-3-carbonitrile hydrochloride] | 128 |  | 126
5 | Cn1ncc(-c2ccc3c(=O)[nH]nc(CN)c3c2)c1-c1sc2ncc(Cl)cc2c1C#N [Example 4-263, 2-[4-[4-(aminomethyl)-1-oxo-2H-phthalazin-6-yl]-2-methyl-pyrazol-3-yl]-5-chloro-thieno[2,3-b]pyridine-3-carbonitrile] | 119 |  | 132
6 | Cn1ncc(-c2ccc3c(=O)[nH]nc(CN)c3c2)c1-c1ccc2n1C(=O)CC2 [Example 4-260, 4-(aminomethyl)-6-[1-methyl-5-(5-oxo-6,7-dihydropyrrolizin-3-yl)pyrazol-4-yl]-2H-phthalazin-1-one] | 575 |  | 2680
7 | Cn1ncc(-c2ccc3c(=O)[nH]nc(CN)c3c2)c1-c1c(F)cc2c(c1C#N)OCO2 (atropisomer, axis not shown; (M)) [Example 16-88, (M)-5-[4-[4-(aminomethyl)-1-oxo-2H-phthalazin-6-yl]-2-methyl-pyrazol-3-yl]-6-fluoro-1,3-benzodioxole-4-carbonitrile] | 181 | 173 | 

Stronger by IC50 (PRMT5/MEP50 complex), values ahead:

Row | IC50 (PRMT5/MEP50 complex) [nM] | IC50 [1] [nM] | IC50 ([1]; Homo sapiens, HCT-116, 240 h) [nM] | Compound
8 | 113 | 461 |  | COc1cc(F)c(-c2c(-c3ccc4c(=O)[nH]nc(CN)c4c3)cnn2C)c(C#N)c1OC1CC1 (atropisomer, axis not shown; (P)) [Example 16-72, (P)-2-[4-[4-(aminomethyl)-1-oxo-2H-phthalazin-6-yl]-2-methyl-pyrazol-3-yl]-6-(cyclopropoxy)-3-fluoro-5-methoxy-benzonitrile]
9 | 107 | 35 |  | C[C@@H]1C[C@H]1Oc1ccc(F)c(-c2c(-c3ccc4c(=O)[nH]nc(CN)c4c3)cnn2C)c1C#N (atropisomer, axis not shown; (M)) [Example 16-66, (M)-2-(4-(4-(aminomethyl)-1-oxo-1,2-dihydrophthalazin-6-yl)-1-methyl-1H-pyrazol-5-yl)-3-fluoro-6-((1R,2R)-2-methylcyclopropoxy)benzonitrile]
10 | 83.8 | 39 |  | Cn1ncc(-c2ccc3c(=O)[nH]nc(CN)c3c2)c1-c1c(F)cc2c(c1C#N)OCCC2 (atropisomer, axis not shown; (M)) [Example 16-38, (M)-7-[4-[4-(aminomethyl)-1-oxo-2H-phthalazin-6-yl]-2-methyl-pyrazol-3-yl]-6-fluoro-chromane-8-carbonitrile]
11 | 58.2 |  | 182 | Cn1ncc(-c2ccc3c(=O)[nH]nc(CN)c3c2)c1-c1sc2c(OCC(F)F)cccc2c1C#N [Example 4-269, 2-(4-(4-(aminomethyl)-1-oxo-1,2-dihydrophthalazin-6-yl)-1-methyl-1H-pyrazol-5-yl)-7-(2,2-difluoroethoxy)benzo[b]thiophene-3-carbonitrile]
